According to US20070172957A1, “Methods of identifying anti-inflammatory macrolides” (TAISHO PHARMACEUTICAL CO., LTD., priority 2004, published 2007):

Legend:
[1] = test system: A549 cells; assay: A549 microarray comparing macrolides with arachidonic acid pathway inhibitors, with IL-1β stimulation (Appendix C, Tables 6-9), and correlation analysis; format: cell-based; details: for Total # Differential Genes (95% confidence): A549, threshold 1.3; for FADS1 expression: A549 cells, microarray
Text: One inhibitor, triacsin C, acts on AA biosynthesis by inhibiting arachidonyl CoA synthetases, blocking the incorporation of free AA into phospholipids. Triacsin C is reasonably specific for AA compared to other fatty acids. However, triacsin C structurally resembles AA so it also may interfere with other steps in the AA pathway. Indomethacin is an inhibitor of COX1 and COX2 enzyme activities and therefore specifically blocks metabolism of AA into prostaglandins. […] It inhibits transcription of PLA2, and transcriptionally and post-transcriptionally regulates COX1 and COX2 activities. Dexamethasone has additional effects unrelated to AA through binding with the glucocorticoid receptor to glucocortcoid response elements.
A549 cells were pre-incubated overnight (17 hours) with macrolides (10 μM FMA-9045, 50 μM clarithromycin, 50 μM roxithromycin, 50 μM josamycin) and 15 μM triacsin C, and pre-incubated 2 hours with 100 nM indomethacin and 100 nM dexamethasone. All cells then were stimulated for 4 hours with IL-1β, because the activation of PLA2 and downstream signaling events generally requires an inflammatory stimulus. The various treatment conditions are shown below in Table 4. Following macrolide and inhibitor pre-treatment and IL-1 stimulation, the cells were lysed, total RNA was collected, and the poly-A+ mRNA fraction was purified. The resulting microarray data (Appendix C) were analyzed using the methods described in the Examples above.
The tables in Appendix C represent the effects of the arachidonic acid pathway inhibitors (“AA pathway inhibitors”) and the effects of the macrolides (“IL1+macrolide effects”). […] In both tables in Appendix C, the genes that meet this criterion (≧1.3 min fold change) are indicated in bold.
Quantitative analysis was done to determine how well the responses to the different AA pathway inhibitors correlated. The correlation values were assigned a p-value to provide statistical confidence to the correlation value. Correlation between experiments, across all spots showing good detection, was assessed by cosine vector angle to generate the data shown in Tables 7-9. A correlation coefficient close to one indicates strong correlation, whereas a value near zero indicates no correlation. P-values for each correlation coefficient were estimated based on a Fisher permutation test. In this test, each spot's expression ratios were randomly re-ordered across experiments and the degree of correlation between experiments was then reassessed. This was done repeatedly.

[2] = test system: tobacco smoke-induced pulmonary emphysema; assay: Model mice with tobacco smoke-induced pulmonary emphysema; format: in vivo; details: for pulmonary alveolus size: 6 months, mean ± SE; for pulmonary emphysema rate: relative to non-smoking
Experimental: The model mice with tobacco smoke-induced pulmonary emphysema mimicking human pulmonary emphysema were constructed according to the method as described in Hautamaki, R. D. et al., Science 1997, 277: 2002-2004 or Shapiro, S. D. et al., Am. […] Specifically, C57black/6 female mice of 12-weeks old were exposed to tobacco smoke at two cigarettes per day, 6 days per week for 6 months.
Administration of clarithromycin was carried out orally at the rate of 25, 50 or 100 […] twice daily (morning and evening) during the tobacco smoke exposure period. The plasma AUC0-8 of clarithromycin obtained when 50 mg/kg was singly administered to the mice was 2.677 μg·hr/ml while the plasma AUC0-8 of clarithromycin obtained when 200 mg of clarithromycin was singly administered to a normal human subject was 8.98 μg·hr/ml. The former concentration was substantially lower than the latter one and was an adequate concentration to be used clinically.
The index of the improvement to the pulmonary emphysema condition followed the mothod as described in Hautamaki, R. D. et al., ibid. or Shapiro, S. D. et al., ibid.
Hematoxylin eosin-stained pathological specimens were prepared from the model mice and ten visual fields under a microscope were randomly selected, where the average sizes of pulmonary alveoli were measured. An increase in the average size of pulmonary alveolus is considered as an index of the destruction of pulmonary alveoli, i.e., the pulmonary emphysema condition.
The cell counts of inflammatory cells (microphages and neutrophiles) in the bronchoalveolar lavage fluids after six months' exposure were measured to provide an index of the inflammatory condition in the model mice with tobacco smoke-induced pulmonary emphysema.
It has been reported that as pulmonary emphysema progresses, pulmonary functions deteriorate. It has also been known that the pulmonary compliance, which is an index of pulmonary functions, increases in model mice with tobacco smoke-induced pulmonary emphysema. Thus, the pulmonary compliance was measured in the model mice with tobacco smoke-induced pulmonary emphysema after six months' exposure.

[3] = IL1 + Triacsin vs IL1 + Triacsin + macrolide 50 μM
[4] = IL1 vs IL1 + drug, macrolides 50 μM (FMA 10 μM), triacsin C 15 μM, indomethacin and dexamethasone 100 nM
[5] = A549 + IL-1β, of the genes regulated by the labelled drug

Row | Structure (SMILES) | Total # Differential Genes (95% confidence) [1, 3] | Total # Differential Genes (95% confidence) [1, 4] | FADS1 expression [1] | Number of differentially expressed genes also differential in response to indomethacin [1, 5] | Number of differentially expressed genes also differential in response to triacsin C [1, 5] | cell count of macrophages in bronchoalveolar lavage fluids ([2]; after six months' exposure, FIG. 4A) | cell count of neutrophiles in bronchoalveolar lavage fluids ([2]; after six months' exposure, FIG. 4B) | pulmonary compliance ([2]; after six months' exposure, FIG. 5) | improvement factor ([2]; smoking + CAM 25 mg/kg) [%] | pulmonary alveolus size ([2]; smoking + CAM 25 mg/kg orally twice daily) [μm] | pulmonary emphysema rate ([2]; smoking + CAM 25 mg/kg) [%] | improvement factor ([2]; smoking + CAM 50 mg/kg) | pulmonary alveolus size ([2]; smoking + CAM 50 mg/kg orally twice daily) [μm] | improvement factor ([2]; smoking + CAM 50 mg/kg, listed as CAM) [%] | pulmonary emphysema rate ([2]; smoking + CAM 50 mg/kg) [%] | improvement factor ([2]; smoking + CAM 100 mg/kg) [%] | pulmonary alveolus size ([2]; smoking + CAM 100 mg/kg orally twice daily) [μm] | pulmonary emphysema rate ([2]; smoking + CAM 100 mg/kg) [%]
1 | CC[C@H]1OC(=O)[C@H](C)[C@@H](O[C@H]2C[C@@](C)(OC)[C@@H](O)[C@H](C)O2)[C@H](C)[C@@H](O[C@@H]2O[C@H](C)C[C@H](N(C)C)[C@H]2O)[C@](C)(O)C[C@@H](C)/C(=N\OCOCCOC)[C@H](C)[C@@H](O)[C@]1(C)O [roxithromycin] | 7 | 65 | differentially expressed |  |  |  |  |  |  |  |  |  |  |  |  |  |  | 
2 | CO[C@@H]1[C@@H](O[C@@H]2O[C@H](C)[C@@H](O[C@H]3C[C@@](C)(O)[C@@H](OC(=O)CC(C)C)[C@H](C)O3)[C@H](N(C)C)[C@H]2O)[C@@H](CC=O)C[C@@H](C)[C@@H](O)/C=C/C=C/C[C@@H](C)OC(=O)C[C@H]1OC(C)=O [josamycin] |  | 73 |  |  |  |  |  |  |  |  |  |  |  |  |  |  |  | 
3 | CC[C@H]1OC(=O)[C@H](C)[C@@H](O[C@H]2C[C@@](C)(OC)[C@@H](O)[C@H](C)O2)[C@H](C)[C@@H](O[C@@H]2O[C@H](C)C[C@H](N(C)C)[C@H]2O)[C@](C)(OC)C[C@@H](C)C(=O)[C@H](C)[C@@H](O)[C@]1(C)O [clarithromycin] | 4 | 54 | differentially expressed | 25 | Forty-two | reduced | reduced | recovered | 47 | 35.60 ± 1.425 | 10.6 | up to 87% | 33.16 ± 0.890 | 85 | 3 | 66.5 | 34.35 ± 0.936 | 6.7
